Reference: patent US20170000377A1, “SYSTEM AND METHOD FOR IMAGING FREE RADICALS” (THE GENERAL HOSPITAL CORPORATION, priority 2014, published 2017)

Assay: OMRI of rat after MCAO and reperfusion with injected TEMPOL
Design: species or system Wistar rat
Conditions: following ischemia/reperfusion in vivo, imaged with OMRI
Protocol: A 3D OMRI process can be performed using a variation of a balanced steady state free precession (b-SSFP) pulse sequence, for example, such as described in Sarracanie M et al. MRM 2013 DOI: 10.1002/mrm.24705. To achieve sensitivity of b-SSFP-based OMRI to free radical concentration, an NMR/ESR coil setup can be used. For one in vivo experiment, a single loop ESR coil 400 was arranged inside a solenoid NMR coil 402, as illustrate din FIG. 4. Under anesthesia, MCAO occlusion was performed in a 3 month old Wistar rat by insertion of filament via external carotid artery. Following 75 min MCAO and 60 min reperfusion, 3.6 μl/gbw of 300 μM TEMPOL was injected into the carotid artery after which the animal was sacrificed and OMRI imaging begun.
The OMRI enhancement image may be computed from a ratio of OMRI to MRI magnitude. […] The phase of the OMRI image in FIG. 6 provides sensitive contrast even in cases where the radical concentration is very low and the Overhauser enhancement may be small.

CC1(C)CC(O)CC(C)(C)N1[O] [TEMPOL, 4-hydroxy-2,2,6,6-tetramethylpiperidin-1-oxyl]
crossing the BBB: crossing the BBB
